Laboratory results taken from PubChem BioAssay AID1963986 (Molecular Pharmacology Branch, DTP, NCI, 2024).
Where “and” joins values, the source holds several entries; their conditions need not be identical. Equal values may be shown once.

System: 171881-019-R-J1-PDC tumor spheroid viability
Test: Anticancer human tumor 171881-019-R-J1-PDC patient-derived invasive breast carcinoma cell line growth inhibition [PI3K]
Settings: spheroids with HUVEC and MSC; for viability, T/C: stronger effect = lower value
Method in brief: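 Three cell types, namely tumor cells, endothelial cells and mesenchymal stem cells, formed each spheroid. Combinations with four PI3K inhibitors were screened at clinically achievable concentrations decreasing by half-log, and spheroid viability was recorded.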

[1] = curve of first compound, second compound 0.0316 µM
[2] = curve of first compound, second compound 0.1 µM
[3] = curve of first compound, second compound 0.316 µM
[4] = curve of first compound, second compound 1 µM
[5] = second compound 0.0316 µM, first compound 0.0316 µM
[6] = second compound 0.0316 µM, first compound 0.1 µM
[7] = second compound 0.0316 µM, first compound 0.316 µM
[8] = second compound 0.0316 µM, first compound 1 µM
[9] = second compound 0.0316 µM, first compound 3.16 µM
[10] = second compound 0.0316 µM, first compound 10 µM
[11] = second compound 0.1 µM, first compound 0.0316 µM
[12] = second compound 0.1 µM, first compound 0.1 µM
[13] = second compound 0.1 µM, first compound 0.316 µM
[14] = second compound 0.1 µM, first compound 1 µM
[15] = second compound 0.1 µM, first compound 3.16 µM
[16] = second compound 0.1 µM, first compound 10 µM
[17] = second compound 0.316 µM, first compound 0.0316 µM
[18] = second compound 0.316 µM, first compound 0.1 µM
[19] = second compound 0.316 µM, first compound 0.316 µM
[20] = second compound 0.316 µM, first compound 1 µM
[21] = second compound 0.316 µM, first compound 3.16 µM
[22] = second compound 0.316 µM, first compound 10 µM
[23] = second compound 1 µM, first compound 0.0316 µM
[24] = second compound 1 µM, first compound 0.1 µM
[25] = second compound 1 µM, first compound 0.316 µM
[26] = second compound 1 µM, first compound 1 µM
[27] = second compound 1 µM, first compound 3.16 µM
[28] = second compound 1 µM, first compound 10 µM
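Also: spheroids exposed to compound for 7 days before viability read.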
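For viability, T/C in this document: 100% = DMSO vehicle-treated spheroids.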

## C#Cc1c(F)ccc2cc(O)cc(-c3ncc4c(N5CC6CCC(C5)N6)nc(OCC56CCCN5CC(F)C6)nc4c3F)c12 (stereo unspecified) + CC(Nc1ccc2c(c1)OCCn1cc(N3C(=O)OCC3C(F)F)nc1-2)C(N)=O
Curve of first compound, second compound 0.00316 µM
  IC50: 187 nM
Curve of first compound, second compound 0.01 µM
  IC50: 99.6 nM
[1]
  IC50: < 31.6 nM
[2]
  IC50: < 31.6 nM
[3]
  IC50: < 31.6 nM
[4]
  IC50: < 31.6 nM
Second compound 0.00316 µM, first compound 0.0316 µM
  viability, T/C: 72.4%
Second compound 0.00316 µM, first compound 0.1 µM
  viability, T/C: 57.1%
Second compound 0.00316 µM, first compound 0.316 µM
  viability, T/C: 44.4%
Second compound 0.00316 µM, first compound 1 µM
  viability, T/C: 32.8%
Second compound 0.00316 µM, first compound 3.16 µM
  viability, T/C: 28.8%
Second compound 0.00316 µM, first compound 10 µM
  viability, T/C: 22%
Second compound 0.01 µM, first compound 0.0316 µM
  viability, T/C: 65%
Second compound 0.01 µM, first compound 0.1 µM
  viability, T/C: 51.7%
Second compound 0.01 µM, first compound 0.316 µM
  viability, T/C: 32%
Second compound 0.01 µM, first compound 1 µM
  viability, T/C: 27.5%
Second compound 0.01 µM, first compound 3.16 µM
  viability, T/C: 22.2%
Second compound 0.01 µM, first compound 10 µM
  viability, T/C: 17.1%
[5]
  viability, T/C: 42.7%
[6]
  viability, T/C: 37.2%
[7]
  viability, T/C: 26.4%
[8]
  viability, T/C: 18.3%
[9]
  viability, T/C: 14.9%
[10]
  viability, T/C: 12.7%
[11]
  viability, T/C: 31.1%
[12]
  viability, T/C: 23.6%
[13]
  viability, T/C: 15.6%
[14]
  viability, T/C: 11.9%
[15]
  viability, T/C: 9.09%
[16]
  viability, T/C: 8.33%
[17]
  viability, T/C: 21.1%
[18]
  viability, T/C: 15.7%
[19]
  viability, T/C: 10.4%
[20]
  viability, T/C: 7.74%
[21]
  viability, T/C: 6.88%
[22]
  viability, T/C: 6.22%
[23]
  viability, T/C: 17.2%
[24]
  viability, T/C: 12.3%
[25]
  viability, T/C: 7.9%
[26]
  viability, T/C: 7.17%
[27]
  viability, T/C: 5.55%
[28]
  viability, T/C: 4.36%

## CC1(C)CCC(CN2CCN(c3ccc(C(=O)NS(=O)(=O)c4ccc(NCC5CCOCC5)c([N+](=O)[O-])c4)c(Oc4cnc5[nH]ccc5c4)c3)CC2)=C(c2ccc(Cl)cc2)C1 + CC(Nc1ncnc2nc[nH]c12)c1cc2cccc(Cl)c2c(=O)n1-c1ccccc1
[1]
  IC50: 4130 nM
[2]
  IC50: 3980 nM
[3]
  IC50: 3970 nM
[4]
  IC50: 4010 nM
Curve of first compound, second compound 3.16 µM
  IC50: 2590 nM
Curve of first compound, second compound 10 µM
  IC50: 1490 nM
[5]
  viability, T/C: 88.6%
[6]
  viability, T/C: 80.2%
[7]
  viability, T/C: 80.3%
[8]
  viability, T/C: 76%
[9]
  viability, T/C: 61.9%
[10]
  viability, T/C: 14.3%
[11]
  viability, T/C: 89.7%
[12]
  viability, T/C: 89.9%
[13]
  viability, T/C: 74.5%
[14]
  viability, T/C: 72.6%
[15]
  viability, T/C: 64.1%
[16]
  viability, T/C: 11.7%
[17]
  viability, T/C: 90.4%
[18]
  viability, T/C: 88.2%
[19]
  viability, T/C: 81.9%
[20]
  viability, T/C: 97.3%
[21]
  viability, T/C: 59.2%
[22]
  viability, T/C: 12.4%
[23]
  viability, T/C: 92.1%
[24]
  viability, T/C: 88.3%
[25]
  viability, T/C: 81.4%
[26]
  viability, T/C: 84.8%
[27]
  viability, T/C: 59.9%
[28]
  viability, T/C: 10.8%
Second compound 3.16 µM, first compound 0.0316 µM
  viability, T/C: 84.5%
Second compound 3.16 µM, first compound 0.1 µM
  viability, T/C: 87.9%
Second compound 3.16 µM, first compound 0.316 µM
  viability, T/C: 85%
Second compound 3.16 µM, first compound 1 µM
  viability, T/C: 75.7%
Second compound 3.16 µM, first compound 3.16 µM
  viability, T/C: 44.6%
Second compound 3.16 µM, first compound 10 µM
  viability, T/C: 11.4%
Second compound 10 µM, first compound 0.0316 µM
  viability, T/C: 64.5%
Second compound 10 µM, first compound 0.1 µM
  viability, T/C: 55.9%
Second compound 10 µM, first compound 0.316 µM
  viability, T/C: 57%
Second compound 10 µM, first compound 1 µM
  viability, T/C: 57%
Second compound 10 µM, first compound 3.16 µM
  viability, T/C: 37.7%
Second compound 10 µM, first compound 10 µM
  viability, T/C: 9.06%

## CC(C)NCC(C(=O)N1CCN(c2ncnc3c2C(C)CC3O)CC1)c1ccc(Cl)cc1 (stereo unspecified)
Compound 0.0316 µM
  viability, T/C: 85.8% [middle of 4 runs]
Compound 0.1 µM
  viability, T/C: 76.4% [middle of 4 runs]
Compound 0.316 µM
  viability, T/C: 57.3% (2×) and 54.7% and 53.9%
Compound 1 µM
  viability, T/C: 27.4% [middle of 4 runs]
Compound 3.16 µM
  viability, T/C: 17.1% [middle of 4 runs]
Compound 10 µM
  viability, T/C: 9.96% [middle of 4 runs]
Curve of compound
  IC50: 376 nM [middle of 4 runs]
